Measurements: patent US20140364438A1, “TRIAZOLOPYRIDINE DERIVATIVES AS A TYROSINE KINASE INHIBITOR” (HANMI PHARM. CO., LTD., priority 2012, published 2014)

How the values were obtained:
[1] = target: T1, BTK (Homo sapiens, UniProt Q06187); test: BTK kinase inhibitory activity, Z-Lyte Kinase Assay Kit; type: biochemical; conditions: 60 minutes at room temperature
T1 construct: purchased Invitrogen PV3190
Procedure: (§1) The compounds prepared in Examples 1 to 5 were tested for JAK3 and BTK kinase inhibitory activity. Kinase inhibitory activity was measured by using Z-Lyte Kinase Assay Kit (Invitrogen), and JAK3 and BTK enzymes were purchased from Invitrogen (PV3855, PV3190).
(§2) Specifically, the compounds of Examples 1 to 5 were diluted with an aqueous solution of 4% DMSO to obtain solutions with concentrations in the range of 1 to 0.0001 μM. Each kinase was diluted to 1 to 10 ng/assay, and ATP was diluted to form a kinase buffer (50 mM HEPES, pH 7.4; 10 mM MgCl2; 1 mM EGTA; and 0.01% BRIJ-35) by calculating an approximate Kd value. The assays were performed in 384-well polystyrene flat-bottomed plates. Peptide substrate having a suitable concentration, 10 μL of mixed kinase solution and 5 μL of ATP solution having a concentration of 5 to 300 μM were added to 5 μL of the diluted solution of the compound, and allowed to react in a mixer for 60 minutes at room temperature. After 60 minutes, 10 μL of fluorescent labeling reagents was added to each mixture so as to allow fluorescent labeling of peptide substrates, followed by adding a finishing solution to complete the reaction. The fluorescence level was determined with a Molecular Device at 400 nm (excitation filter) and 520 nm (emission filter). The kinase inhibitory activities of the compounds were calculated in phosphorylation rates between 0˜400% against the control group (staurosporine or each of kinase inhibitor) according to the reference protocol of the kit, and percentage inhibition was determine and plotted against concentration (x-axis) to calculate 50% inhibitory concentration (IC50). The calculation and analysis of IC50 were carried out by using Microsoft Excel.

[2] = target: T2, JAK3 (Homo sapiens, UniProt P52333); test: JAK3 kinase inhibitory activity, Z-Lyte Kinase Assay Kit; type: biochemical; conditions: 60 minutes at room temperature
T2 construct: purchased Invitrogen PV3855
Procedure: as §1, §2

T2 sequence (P52333 781-1124 limits assumed): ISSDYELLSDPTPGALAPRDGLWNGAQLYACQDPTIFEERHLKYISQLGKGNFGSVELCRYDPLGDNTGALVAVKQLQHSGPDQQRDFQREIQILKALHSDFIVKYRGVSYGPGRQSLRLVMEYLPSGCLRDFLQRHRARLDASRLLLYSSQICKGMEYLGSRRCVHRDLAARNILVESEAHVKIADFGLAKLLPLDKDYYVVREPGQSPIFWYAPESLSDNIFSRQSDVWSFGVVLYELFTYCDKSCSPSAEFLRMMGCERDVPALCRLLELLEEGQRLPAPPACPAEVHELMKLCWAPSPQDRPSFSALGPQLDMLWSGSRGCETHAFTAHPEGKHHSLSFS
T1 sequence (Q06187 whole entry): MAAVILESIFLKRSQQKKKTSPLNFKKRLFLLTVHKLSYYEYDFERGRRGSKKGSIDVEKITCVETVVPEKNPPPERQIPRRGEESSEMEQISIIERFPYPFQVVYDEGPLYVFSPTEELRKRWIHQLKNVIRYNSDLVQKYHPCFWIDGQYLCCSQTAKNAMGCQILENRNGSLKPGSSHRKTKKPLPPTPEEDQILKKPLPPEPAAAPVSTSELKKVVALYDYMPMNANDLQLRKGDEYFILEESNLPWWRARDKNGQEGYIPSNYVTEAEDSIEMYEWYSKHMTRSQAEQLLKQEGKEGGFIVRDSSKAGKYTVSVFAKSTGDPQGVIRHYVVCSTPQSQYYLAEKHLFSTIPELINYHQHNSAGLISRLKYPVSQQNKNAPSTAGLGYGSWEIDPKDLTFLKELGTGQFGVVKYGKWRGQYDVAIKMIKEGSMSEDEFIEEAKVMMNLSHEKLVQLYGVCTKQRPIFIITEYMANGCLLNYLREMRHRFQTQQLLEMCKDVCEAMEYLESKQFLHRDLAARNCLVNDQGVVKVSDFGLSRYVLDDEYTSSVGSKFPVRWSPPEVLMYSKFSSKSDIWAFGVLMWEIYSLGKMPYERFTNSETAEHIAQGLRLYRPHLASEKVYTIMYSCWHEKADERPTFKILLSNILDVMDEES

Structure (SMILES) | IC50 ([1]; class symbol) | IC50 ([2]; class symbol) | IC50 ([1]; numeric value in parentheses) | IC50 ([2]; numeric value in parentheses)
C=CC(=O)Nc1cccc(Oc2cccn3nc(Nc4ccc(NC5CCN(C)CC5)c(F)c4)nc23)c1 [Example 2, N-(3-(2-(3-fluoro-4-(1-methylpiperidin-4-ylamino)phenylamino)-[1,2,4]triazolo[1,5-a]pyridin-8-yloxy)phenyl)acrylamide] | 100 to 500 nM | ≤ 100 nM |  | 
C=CC(=O)Nc1cccc(Oc2cccn3nc(Nc4ccc(CN(C)C)cc4)nc23)c1 [Example 3, N-(3-(2-(4-((dimethylamino)methyl)phenylamino)-[1,2,4]triazolo[1,5-a]pyridin-8-yloxy)phenyl)acrylamide] | 100 to 500 nM | ≤ 100 nM |  | 
C=CC(=O)Nc1cccc(Oc2cccn3nc(Nc4ccc(N5CCN(C)CC5)cc4)nc23)c1 [Example 1, N-(3-(2-(4-(4-methylpiperazin-1-yl)phenylamino)-[1,2,4]triazolo[1,5-a]pyridin-8-yloxy)phenyl)acrylamide] | ≤ 100 nM | ≤ 100 nM | 73 nM | 9 nM
C=CC(=O)Nc1cccc(Oc2cccn3nc(Nc4ccc(C(=O)N5CCN(C)CC5)cc4)nc23)c1 [Example 4, N-(3-(2-(4-(4-methylpiperazin-1-carbonyl)phenylamino)-[1,2,4]triazolo[1,5-a]pyridin-8-yloxy)phenyl)acrylamide] | 100 to 500 nM | ≤ 100 nM |  | 
C=CC(=O)Nc1cccc(Oc2cccn3nc(Nc4ccc(N5CCN(C(C)C)CC5)cc4)nc23)c1 [Example 5, N-(3-(2-(4-(4-isopropylpiperazin-1-yl)phenylamino)-[1,2,4]triazolo[1,5-a]pyridin-8-yloxy)phenyl)acrylamide] | 500 to 1000 nM | ≤ 100 nM |  | 
